Values after ≈ are worked out from the molar mass of the structure shown. “Also recorded” adds a separate entry of the source. Where two headings read alike, the source gives them in different places. Blank lines part the entries; values can stand above or below the compound they belong to.
Tests used:
[1] = Solubility in organic solvents; type: physicochemical; details: for solubility (comparison in words): organic solvents
[2] = Thermal fragmentation / decomposition (thermogravimetric analysis, heating); type: physicochemical; details: for thermal conversion of spin-cast film to pentacene: heating amorphous thin films cast from toluene
Description: FIG. 2 presents thermogravimetric analysis curves for compounds 1 (blue) and 2 (red) at 10° C./min heating rate, assessing the carbon monoxide (CO) expulsion reaction, in which the carbonyl bridge is released from the precursor for conversion to pentacene.
Melting points were taken on a Fargo MP-2D melting-point apparatus and were not corrected. UV spectra were recorded on a Hewlett-Packard 8453 spectrophotometer. Infrared spectra were measured on a Perkin-Elmer L118-F000 FT-IR spectrometer as either thin film or solid dispersion in KBr. Nuclear magnetic resonance spectra were recorded on Bruker AC300 and AV500 super-conducting FT NMR spectrometers with all chemical shifts reported in ppm from tetramethylsilane as an internal standard. Mass spectra were obtained on a Joel JMS 700 double focusing spectrometer. Elemental analyses were performed on a Perkin-Elmer 2400 elemental analyzer. Thermal gravimetric analyses were measured on a Perkin-Elmer Pyris 1 thermogravimetric analyzer. Differential scanning calorimetry was done on a Perkin-Elmer DCS-7 instrument. Column chromatography was carried out using 230-400 mesh silica gel.

[3] = heating; earlier reports; cited from earlier work
[4] = Stability on storage / at ambient conditions; type: physicochemical
[5] = organic solvents; cited from earlier work
[6] = organic solvent or mixture, dichloromethane (DCM) and tetrahydrofuran (THF), read-out: solubility
[7] = toluene, solutions for spin-casting

solubility [1, 6]: ~700 µg/mL (≈ 2280 µM) | temperature at which CO expulsion / decomposition starts ([2]; TGA, 10° C./min heating rate): 150 °C
SMILES: O=C1[C@H]2c3cc4ccccc4cc3[C@H]1c1cc3ccccc3cc12 [Compound 1, reference compound]
temperature of CO extrusion to pentacene [3]: 150 °C

solubility [1, 6]: ~700 µg/mL (≈ 2280 µM) | solubility (comparison in words) [1]: better than compound 1 | weight loss ([2]; thermogravimetric curve, corresponds to a CO unit): 10% | stability (in words) [4]: stable at ambient temperature
SMILES: O=C1[C@@H]2c3ccccc3[C@@H]1c1cc3cc4ccccc4cc3cc12 [Compound 2]
temperature of CO extrusion to pentacene [3]: 128 °C

stability (in words) [4]: relatively low
SMILES: O=C1[C@@H]2C=C[C@@H]1c1cc3cc4cc5ccccc5cc4cc3cc12 [Compound 11]

SMILES: O=C1C2c3ccccc3[C@@H]1c1cc3c(cc12)[C@@H]1C(=O)[C@@H]3c2ccccc21 [Compound 12]
solubility (comparison in words) [1]: higher solubility than either compound 1 or 2 | stability (in words) [4]: stable at low temperature for a long period of time; also recorded: can be kept at −10 °C for an extended period of time

SMILES: O=C1C2C=CC1c1cc3cc4cc5c(cc4cc3cc12)C1C=CC5C1=O [Compound 13A]
stability (in words) [4]: decomposed readily at ambient conditions; also recorded: not stable enough to sustain at ambient conditions

SMILES: O=C1C2C=CC1c1cc3cc4cc5c(cc4cc3cc12)C1C=CC5C1=O [Compound 13]
stability (in words) [4]: cannot be isolated at ambient temperature; also recorded: relatively low

stability (in words) [4]: relatively low
SMILES: O=C1C2C=CC1c1cc3c(cc12)[C@H]1C(=O)[C@H]3c2cc3c(cc21)C1C=C[C@H]3C1=O [Compound 14]

SMILES: C1=C[C@@H]2c3cc4cc5cc6c(cc5cc4cc3[C@@H]1[C@]21OCCO1)[C@H]1C=C[C@@H]6[C@]12OCCO2 [Compound 16]
fragmentation / dissociation temperature of ethylene ketal (CO2 and ethylene released) ([2]; TGA): about 225 °C

solubility [1, 7]: good solubility | decomposition temperature ([2]; anti isomer): 297 °C | decomposition temperature ([2]; syn isomer): 271 °C
SMILES: COC1(OC)C2(Cl)C(Cl)=C(Cl)C1(Cl)c1cc3cc4cc5c(cc4cc3cc12)C1(Cl)C(Cl)=C(Cl)C5(Cl)C1(OC)OC [Compound 23]
thermal conversion of spin-cast film to pentacene [2]: did not yield either pentacene or 1,2,3,4,8,9,10,11-octachloropentacene

solubility [1, 7]: good solubility | decomposition temperature ([2]; anti isomer): 288 °C | decomposition temperature ([2]; syn isomer): 252 °C
SMILES: COC1(OC)C2C=CC1c1cc3cc4cc5c(cc4cc3cc12)C1C=CC5C1(OC)OC [Compound 25]
thermal conversion of spin-cast film to pentacene [2]: did not yield either pentacene or 1,2,3,4,8,9,10,11-octachloropentacene

SMILES: c1csc(-c2ccc3cc4cc(-c5cccs5)ccc4cc3c2)c1 [Compound 35]
solubility [5]: undesirably low solubility

SMILES: C(=C\c1cccs1)/c1ccc2cc3cc(/C=C/c4cccs4)ccc3cc2c1 [Compound 36]
solubility [5]: undesirably low solubility

SMILES: c1ccc(-c2ccc3cc4cc(-c5ccccc5)ccc4cc3c2)cc1 [Compound 37]
solubility [5]: undesirably low solubility

SMILES: C(=C\c1ccc2cc3cc(/C=C/c4ccccc4)ccc3cc2c1)/c1ccccc1 [Compound 38]
solubility [5]: undesirably low solubility

SMILES: c1ccc2cc3cc4cc5ccccc5cc4cc3cc2c1 [pentacene]
temperature up to which stable ([2]; pentacene produced from compound 2, TGA): 300 °C

Reference: patent US9034439B2, “Synthesis and applications of soluble pentacene precursors and related compounds” (Academia Sinica, priority 2008, dated 2015)
